From paper PMC4980083 (JCI insight, 2016)

Columns and labels:
LNCaP95 cells [1] = assay: LNCaP95 proliferation, BrdU incorporation; type: cell-based, human; conditions: I-EPI-002 2 μM, EPI-002 25 μM, enzalutamide 5 μM; 2 days
GR = target: T1, GR (Homo sapiens, UniProt P04150); assay: GR transcriptional activity, GRE luciferase reporter; type: cell-based; conditions: dexamethasone induced
T1 sequence (P04150 1-777): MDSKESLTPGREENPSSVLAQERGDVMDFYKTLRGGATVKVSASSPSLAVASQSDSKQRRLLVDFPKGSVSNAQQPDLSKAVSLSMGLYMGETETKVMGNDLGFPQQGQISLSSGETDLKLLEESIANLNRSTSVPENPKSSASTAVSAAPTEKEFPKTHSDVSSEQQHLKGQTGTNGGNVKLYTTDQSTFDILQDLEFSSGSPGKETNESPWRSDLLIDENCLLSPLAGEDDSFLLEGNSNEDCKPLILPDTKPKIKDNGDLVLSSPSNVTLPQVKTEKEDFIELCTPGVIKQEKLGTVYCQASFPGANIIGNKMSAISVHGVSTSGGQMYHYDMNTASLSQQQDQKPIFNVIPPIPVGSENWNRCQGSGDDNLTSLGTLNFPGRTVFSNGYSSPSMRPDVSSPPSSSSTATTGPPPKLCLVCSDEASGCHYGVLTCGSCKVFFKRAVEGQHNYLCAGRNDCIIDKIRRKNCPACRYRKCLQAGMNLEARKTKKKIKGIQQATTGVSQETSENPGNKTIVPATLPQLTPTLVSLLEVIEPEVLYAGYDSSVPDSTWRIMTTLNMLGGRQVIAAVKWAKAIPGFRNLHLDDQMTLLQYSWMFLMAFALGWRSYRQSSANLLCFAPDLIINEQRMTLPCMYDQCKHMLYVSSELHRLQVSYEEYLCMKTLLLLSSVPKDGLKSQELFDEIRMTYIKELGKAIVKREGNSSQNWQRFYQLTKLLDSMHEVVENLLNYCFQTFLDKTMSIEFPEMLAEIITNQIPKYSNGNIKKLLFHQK

LNCaP95 cells [2] = assay: Cell cycle analysis of LNCaP95 cells; type: cell-based, human; conditions: I-EPI-002 5 μM, EPI-002 25 μM, 48 hours
PC3 cells = assay: PC3 proliferation/viability; type: cell-based, human; conditions: up to 10 times the IC50 required to reduce AR-dependent proliferation; 3 days
full-length AR and V7 = assay: Probasin luciferase activity in LNCaP cells, full-length AR and V7; conditions: I-EPI-002 2 μM, enzalutamide 5 μM; presence or absence of androgen
[3] = target: T2, endogenous full-length AR (Homo sapiens, UniProt P10275, T878A); assay: Probasin luciferase activity in LNCaP cells, endogenous full-length AR; conditions: I-EPI-002 2 μM, enzalutamide 5 μM; R1881 1 nM 24 hours
T2 sequence (P10275 1-920 T878A): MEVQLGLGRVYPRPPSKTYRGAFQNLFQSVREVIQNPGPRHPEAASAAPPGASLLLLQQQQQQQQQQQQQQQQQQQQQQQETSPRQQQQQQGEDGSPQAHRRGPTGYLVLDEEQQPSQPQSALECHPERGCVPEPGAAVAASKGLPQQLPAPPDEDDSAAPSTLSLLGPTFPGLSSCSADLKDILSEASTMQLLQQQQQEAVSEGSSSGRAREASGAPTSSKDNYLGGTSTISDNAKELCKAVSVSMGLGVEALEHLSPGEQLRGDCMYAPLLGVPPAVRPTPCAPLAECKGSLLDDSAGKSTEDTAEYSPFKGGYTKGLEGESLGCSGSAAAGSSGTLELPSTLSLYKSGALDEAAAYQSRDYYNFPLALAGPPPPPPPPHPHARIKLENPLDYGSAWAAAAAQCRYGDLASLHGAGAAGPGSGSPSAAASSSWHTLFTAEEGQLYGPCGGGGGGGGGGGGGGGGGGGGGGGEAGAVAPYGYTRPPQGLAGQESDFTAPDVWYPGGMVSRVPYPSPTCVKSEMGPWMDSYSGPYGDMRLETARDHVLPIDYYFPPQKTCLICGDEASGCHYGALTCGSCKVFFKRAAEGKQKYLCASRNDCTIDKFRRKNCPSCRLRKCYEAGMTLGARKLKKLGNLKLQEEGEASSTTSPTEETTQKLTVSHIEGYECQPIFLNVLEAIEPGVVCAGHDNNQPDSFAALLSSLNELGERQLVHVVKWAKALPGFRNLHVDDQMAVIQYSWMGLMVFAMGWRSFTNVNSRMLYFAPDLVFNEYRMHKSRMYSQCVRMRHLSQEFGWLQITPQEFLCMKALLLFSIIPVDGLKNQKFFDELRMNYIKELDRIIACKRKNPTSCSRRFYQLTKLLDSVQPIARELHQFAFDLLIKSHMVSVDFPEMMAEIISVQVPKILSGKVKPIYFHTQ

recombinant AR LBD = target: T3, recombinant AR LBD (Homo sapiens, UniProt P10275); assay: Fluorescence polarization competition binding, AR LBD; conditions: 1 nM fluorescently labeled ligand, AR LBD 25 nM
T3 sequence (P10275 669-900 limits assumed): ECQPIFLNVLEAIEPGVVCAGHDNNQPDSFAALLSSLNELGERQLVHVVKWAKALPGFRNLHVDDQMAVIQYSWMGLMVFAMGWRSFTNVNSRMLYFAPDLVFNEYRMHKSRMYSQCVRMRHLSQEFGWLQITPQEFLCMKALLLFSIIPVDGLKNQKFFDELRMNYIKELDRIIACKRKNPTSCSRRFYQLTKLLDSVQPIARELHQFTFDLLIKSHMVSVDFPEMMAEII

15-IodoEPI002 [I-EPI-002]
effect on proliferation of LNCaP95 cells (LNCaP95 cells [1]): decreased proliferation
inhibition of GR transcriptional activity (GR): did not inhibit
decrease of S phase cells (LNCaP95 cells [2]): ≥ 2 fold
effect on proliferation or viability of PC3 cells (PC3 cells): no effect
inhibition of probasin luciferase activity, full-length AR with V7 (full-length AR and V7): showed good inhibition
inhibition of probasin luciferase activity, full-length AR [3]: showed good inhibition
competition with fluoromone for binding to AR LBD (recombinant AR LBD): did not prevent ligand-binding
